Data reported in patent publication US8354403B2, “Pyrrolidine derived beta 3 adrenergic receptor agonists” (Merck Sharp & Dohme Corp., priority 2009, dated 2013).

What follows are molecules tested against T1, human β3 adrenergic receptor (Homo sapiens, UniProt P13945) (assay: Beta-3 agonist in vitro functional assay: cAMP production (LANCE TR-FRET) in CHO cells stably transfected with the cloned β3 receptor). Settings: Table 9; Beta-3 agonist in vitro functional assay; read-out: Human β3 agonist functional activity.
T1 construct: expressed in transfected cells; host or cells: Chinese hamster ovary (CHO) cells, stably transfected
Type: cell-based
Summary of the method: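 CHO cells stably expressing the cloned receptor, in HEPES-buffered HBSS with BSA and 0.6 mM IBMX, 6,000 cells/well, exposed to compound for 30 min at RT. cAMP read by LANCE TR-FRET against a cAMP standard curve. Isoproterenol defines maximal stimulation.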

T1 sequence (P13945 whole entry): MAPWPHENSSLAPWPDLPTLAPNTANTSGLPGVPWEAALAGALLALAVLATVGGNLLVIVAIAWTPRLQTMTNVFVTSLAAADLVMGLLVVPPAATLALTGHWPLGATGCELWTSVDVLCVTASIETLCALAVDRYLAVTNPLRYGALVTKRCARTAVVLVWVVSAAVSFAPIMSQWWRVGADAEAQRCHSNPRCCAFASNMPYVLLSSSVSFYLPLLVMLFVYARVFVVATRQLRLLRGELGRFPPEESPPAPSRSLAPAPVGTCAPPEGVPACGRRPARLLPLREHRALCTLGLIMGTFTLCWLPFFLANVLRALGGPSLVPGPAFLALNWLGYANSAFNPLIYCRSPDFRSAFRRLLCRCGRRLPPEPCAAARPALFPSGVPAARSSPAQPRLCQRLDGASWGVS

| SMILES | EC50 |
| --- | --- |
| O=C(c1ccc(C[C@@H]2CC[C@H]([C@H](O)c3ccccc3)N2)cc1)N1CCN(c2cc3ccccc3cn2)CC1 [Example 374] | 100 to 999 nM |
| O=C(c1ccc(C[C@@H]2CC[C@H]([C@H](O)c3ccccc3)N2)cc1)N1CCN(c2ncc3ccccc3n2)CC1 [Example 375] | 100 to 999 nM |
| O=C(c1ccc(C[C@@H]2CC[C@H]([C@H](O)c3ccccc3)N2)cc1)N1CCN(c2nccc(-c3ccccc3)n2)CC1 [Example 376] | 10 to 99.9 nM |
| O=C(c1ccc(C[C@@H]2CC[C@H]([C@H](O)c3cccnc3)N2)cc1)N1CCN(c2nccc(-c3ccccc3)n2)CC1 [Example 377] | 10 to 99.9 nM |
| O=C(c1ccc(C[C@@H]2CC[C@H]([C@H](O)c3ccccc3)N2)cc1)N1CCN(c2nccs2)CC1 [Example 378] | 10 to 99.9 nM |
| O=C(c1ccc(C[C@@H]2CC[C@H]([C@H](O)c3cccnc3)N2)cc1)N1CCN(c2nccs2)CC1 [Example 379] | 100 to 999 nM |
| Cc1nonc1N1CCN(C(=O)c2ccc(C[C@@H]3CC[C@H]([C@H](O)c4ccccc4)N3)cc2)CC1 [Example 380] | 10 to 99.9 nM |
| COC(=O)c1csc(N2CCN(C(=O)c3ccc(C[C@@H]4CC[C@H]([C@H](O)c5ccccc5)N4)cc3)CC2)n1 [Example 381] | 100 to 999 nM |
| O=C(O)c1csc(N2CCN(C(=O)c3ccc(C[C@@H]4CC[C@H]([C@H](O)c5ccccc5)N4)cc3)CC2)n1 [Example 382] | 999 to 3000 nM |
| O=C(c1ccc(C[C@@H]2CC[C@H]([C@H](O)c3ccccc3)N2)cc1)N1CCN(c2noc3ccccc23)CC1 [Example 385] | 10 to 99.9 nM |
| O=C(c1ccc(C[C@@H]2CC[C@H]([C@H](O)c3ccccc3)N2)cc1)N1CCN(c2nsc3ccccc23)CC1 [Example 386] | 10 to 99.9 nM |
| O=C(c1ccc(C[C@@H]2CC[C@H]([C@H](O)c3ccccc3)N2)cc1)N1CCN(c2ccc[nH]c2=O)CC1 [Example 387] | 10 to 99.9 nM |
| NC(=O)CN1CCN(C(=O)c2ccc(C[C@@H]3CC[C@H]([C@H](O)c4ccccc4)N3)cc2)CC1 [Example 388] | 100 to 999 nM |
| CN(C)C(=O)CN1CCN(C(=O)c2ccc(C[C@@H]3CC[C@H]([C@H](O)c4ccccc4)N3)cc2)CC1 [Example 389] | 100 to 999 nM |
| O=C(O)CN1CCN(C(=O)c2ccc(C[C@@H]3CC[C@H]([C@H](O)c4ccccc4)N3)cc2)CC1 [Example 390] | 100 to 999 nM |
| O=C(O)[C@@H]1CCCN1C(=O)CN1CCN(C(=O)c2ccc(C[C@@H]3CC[C@H]([C@H](O)c4ccccc4)N3)cc2)CC1 [Example 391] | 100 to 999 nM |
| O=C(c1ccc(C[C@@H]2CC[C@H]([C@H](O)c3ccccc3)N2)cc1)N1CCN(Cc2ncco2)CC1 [Example 392] | 10 to 99.9 nM |
| O=C(c1ccc(C[C@@H]2CC[C@H]([C@H](O)c3ccccc3)N2)cc1)N1CCN(Cc2ccon2)CC1 [Example 393] | 10 to 99.9 nM |
| O=C(c1ccc(C[C@@H]2CC[C@H]([C@H](O)c3ccccc3)N2)cc1)N1CCN(Cc2nccs2)CC1 [Example 394] | 10 to 99.9 nM |
| O=C(c1ccc(C[C@@H]2CC[C@H]([C@H](O)c3ccccc3)N2)cc1)N1CCN(Cc2ccn[nH]2)CC1 [Example 395] | 10 to 99.9 nM |
| Cn1ccnc1CN1CCN(C(=O)c2ccc(C[C@@H]3CC[C@H]([C@H](O)c4ccccc4)N3)cc2)CC1 [Example 396] | 100 to 999 nM |
| Cn1ncnc1CN1CCN(C(=O)c2ccc(C[C@@H]3CC[C@H]([C@H](O)c4ccccc4)N3)cc2)CC1 [Example 397] | 10 to 99.9 nM |
| O=C(c1ccc(C[C@@H]2CC[C@H]([C@H](O)c3ccccc3)N2)cc1)N1CCN(Cc2nnn[nH]2)CC1 [Example 398] | 10 to 99.9 nM |
| Cn1nnnc1CN1CCN(C(=O)c2ccc(C[C@@H]3CC[C@H]([C@H](O)c4ccccc4)N3)cc2)CC1 [Example 399] | 10 to 99.9 nM |
| CC(C)n1nnnc1CN1CCN(C(=O)c2ccc(C[C@@H]3CC[C@H]([C@H](O)c4ccccc4)N3)cc2)CC1 [Example 400] | 10 to 99.9 nM |
| Cn1nnc(CN2CCN(C(=O)c3ccc(C[C@@H]4CC[C@H]([C@H](O)c5ccccc5)N4)cc3)CC2)n1 [Example 401] | 10 to 99.9 nM |
